In patent US20230356105A1, “TETRAAZADODECANE BASED CHELATING AGENTS FOR SEPARATION OF RARE EARTH ELEMENTS AND METHOD THEREFOR” (Ustav Organicke Chemie a Biochemie AV CR V.V.I., priority 2020, published 2023):
Values joined by “and” are separate entries in the source; they are usually repeats but may differ in a detail not shown here. Identical values can stand only once.

Assay: Separation of Nd/Pr/Tb/Dy mixture by repeated precipitation using L5 and α-HIBA (Example 24)
Format: physicochemical
Procedure: The reaction mixture was prepared by pipetting the following aqueous stock solutions into a 20 mL glass vial: • 1. 476 μL 246 mM aqueous chelator L5 • 2. 606 μL 175.5 mM aqueous LnCl3 solution (from a stock solution containing a mixture of Ln =Nd, Pr, Tb, and Dy, in a ratio of 3.3:1:1:1, Nd:Pr:Tb:Dy) • 3. 41.6 μL 2560 mM aqueous α-HIBA pH=6.5 • 4. 4103 μL water • 5. 1733 μL 3.0 M MOPS pH=7
The total reaction volume was 7.0 mL. Three identical reaction mixtures were prepared. A PTFE-coated stir bar was added to each vial; the vials were capped and stirred on a magnetic stirrer at room temperature. After 18 hours, a 200 μL aliquot of the reaction mixture was taken from each vial. This was centrifuged in a 2 mL plastic Eppendorf centrifuge tube, and the supernatant was carefully pipetted from the sample and transferred to a new set of tubes. The precipitate was dissolved by addition of 200 μL 1 M HCl, and the absolute concentration of each of the four lanthanides (Nd, Pr, Tb, and Dy) in each sample of the supernatant and precipitate was determined by ICP-OES. The remaining reaction mixtures from each vial were individually centrifuged in 15 mL plastic centrifuge tubes to separate the precipitate from the supernatant. The supernatant was discarded. Each precipitate was dissolved by addition of 2 mL 1 M HCl and heating to 80° C. for 1 hour. After dissolution, the acidic solutions were transferred to clean 20 mL glass vials with one PTFE-coated magnetic stir bar each. To each solution was added, in order: 2037 μL water, 40.4 μL 2560 mM aqueous α-HIBA pH =6.5, 1723 μL 3 M aqueous MOPS pH=7, and 1000 μL 2 M NaOH. These solutions were capped and stirred on a magnetic stirrer at room temperature. After 18 hours, a 200 μL aliquot of the reaction mixture was again taken from each and treated for ICP-OES analysis as before. Once again, the remaining reaction mixtures from each vial were individually centrifuged in 15 mL plastic centrifuge tubes to separate the precipitate from the supernatant. The supernatant was discarded. Each precipitate was dissolved by addition of 1 mL 1M HCl and heating to 80° C. for 1 hour. After dissolution, the acidic solutions were transferred to clean 20 mL glass vials with one PTFE-coated magnetic stir bar each. To each solution was added, in order: 3376 μL water, 51.6 μL 2560 mM aqueous α-HIBA pH =6.5, 1672 μL 3 M aqueous MOPS pH=7, and 500 μL 2 M NaOH. These solutions were capped and stirred on a magnetic stirrer at room temperature. After 18 hours, a final 200 μL aliquot of the reaction mixture was again taken from each vial and treated for ICP-OES analysis as before.

[1] = series A (first precipitation, 18 hours), individual samples A1-A3
[2] = series B (repeated precipitation), individual samples B1-B3
[3] = series C (repeated precipitation), individual samples C1-C3

O=C(O)CN1CCN(CC(=O)O)CCN(Cc2cccc3ccccc23)CCN(CC(=O)O)CC1 [L5, 2,2′,2″-(10-(naphthalene-1-ylmethyl)-1,4,7,10-tetraazacyklododekane-1,4,7-triyl)triacetic acid]
avg composition of precipitate, Dy (series A): 6.3% | avg composition of precipitate, Nd (series A): 67.2% | avg composition of precipitate, Pr (series A): 18.2% | avg composition of precipitate, Tb (series A): 8.2% | avg composition of supernatant, Dy (series A): 43.8% | avg composition of supernatant, Nd (series A): 21.4% | avg composition of supernatant, Pr (series A): 3.2% | avg composition of supernatant, Tb (series A): 31.6% | precipitate concentration Dy [1]: 0.81 mM and 0.82 mM (2×) | precipitate concentration Nd [1]: 8.82 mM and 8.69 mM and 8.55 mM | precipitate concentration Pr [1]: 2.39 mM and 2.35 mM and 2.32 mM | precipitate concentration Tb [1]: 1.05 mM and 1.07 mM and 1.06 mM | supernatant concentration Dy [1]: 1.69 mM and 1.65 mM and 1.68 mM | supernatant concentration Nd [1]: 0.85 mM and 0.90 mM and 0.70 mM | supernatant concentration Pr [1]: 0.12 mM and 0.15 mM and 0.09 mM | supernatant concentration Tb [1]: 1.23 mM and 1.19 mM and 1.20 mM | precipitate concentration Dy, avg (series A avg): 0.81 mM | precipitate concentration Nd, avg (series A avg): 8.68 mM | precipitate concentration Pr, avg (series A avg): 2.35 mM | precipitate concentration Tb, avg (series A avg): 1.06 mM | supernatant concentration Dy, avg (series A avg): 1.67 mM | supernatant concentration Nd, avg (series A avg): 0.82 mM | supernatant concentration Pr, avg (series A avg): 0.12 mM | supernatant concentration Tb, avg (series A avg): 1.21 mM | avg composition of precipitate, Dy (series B): 2.0% | avg composition of precipitate, Nd (series B): 73.4% | avg composition of precipitate, Pr (series B): 20.6% | avg composition of precipitate, Tb (series B): 4.0% | avg composition of supernatant, Dy (series B): 28.7% | avg composition of supernatant, Nd (series B): 34.0% | avg composition of supernatant, Pr (series B): 3.1% | avg composition of supernatant, Tb (series B): 34.1% | precipitate concentration Dy [2]: 0.20 mM and 0.21 mM and 0.22 mM | precipitate concentration Nd [2]: 7.54 mM and 7.82 mM and 8.02 mM | precipitate concentration Pr [2]: 2.11 mM and 2.20 mM and 2.24 mM | precipitate concentration Tb [2]: 0.41 mM and 0.42 mM and 0.45 mM | supernatant concentration Dy [2]: 0.50 mM and 0.52 mM and 0.54 mM | supernatant concentration Nd [2]: 0.65 mM and 0.60 mM and 0.59 mM | supernatant concentration Pr [2]: 0.06 mM and 0.05 mM (2×) | supernatant concentration Tb [2]: 0.60 mM and 0.61 mM and 0.64 mM | precipitate concentration Dy, avg (series B avg): 0.21 mM | precipitate concentration Nd, avg (series B avg): 7.80 mM | precipitate concentration Pr, avg (series B avg): 2.18 mM | precipitate concentration Tb, avg (series B avg): 0.42 mM | supernatant concentration Dy, avg (series B avg): 0.52 mM | supernatant concentration Nd, avg (series B avg): 0.61 mM | supernatant concentration Pr, avg (series B avg): 0.06 mM | supernatant concentration Tb, avg (series B avg): 0.62 mM | avg composition of precipitate, Dy (series C): 0.5% | avg composition of precipitate, Nd (series C): 75.6% | avg composition of precipitate, Pr (series C): 22.1% | avg composition of precipitate, Tb (series C): 1.8% | avg composition of supernatant, Dy (series C): 10.4% | avg composition of supernatant, Nd (series C): 61.4% | avg composition of supernatant, Pr (series C): 6.5% | avg composition of supernatant, Tb (series C): 21.6% | precipitate concentration Dy [3]: 0.03 mM and 0.04 mM (2×) | precipitate concentration Nd [3]: 6.34 mM and 6.40 mM and 6.17 mM | precipitate concentration Pr [3]: 1.85 mM and 1.87 mM and 1.80 mM | precipitate concentration Tb [3]: 0.15 mM (2×) and 0.16 mM | supernatant concentration Dy [3]: 0.12 mM (2×) and 0.13 mM | supernatant concentration Nd [3]: 0.67 mM and 0.68 mM and 0.83 mM | supernatant concentration Pr [3]: 0.07 mM (2×) and 0.10 mM | supernatant concentration Tb [3]: 0.24 mM and 0.25 mM and 0.27 mM | precipitate concentration Dy, avg (series C avg): 0.04 mM | precipitate concentration Nd, avg (series C avg): 6.30 mM | precipitate concentration Pr, avg (series C avg): 1.84 mM | precipitate concentration Tb, avg (series C avg): 0.15 mM | supernatant concentration Dy, avg (series C avg): 0.12 mM | supernatant concentration Nd, avg (series C avg): 0.73 mM | supernatant concentration Pr, avg (series C avg): 0.08 mM | supernatant concentration Tb, avg (series C avg): 0.26 mM
